One data set can be described thus: in vitro. The class given is cell-based, murine. Particulars: mouse.
For data set [1], the system named is IMQ-induced psoriasis-like skin inflammation. Description: Mouse model of IMQ-induced psoriasis-like skin inflammation. The class given is in vivo, BALB/c mice. The method, then:
All experimental procedures were approved by the Mackay Memorial Hospital Animal Care and Uses Committee and conducted according to national animal welfare regulations. Psoriasis-like skin inflammation was created by treating mouse skin with Imiquimod (IMQ) in accordance with the procedures described by van der Fits et al (J Immunol. (2009), 182, 5836-5845). Accordingly, each BALB/c mice (8 weeks old) received a daily topical dose of 62.5 mg of commercially available IMQ cream (5%) on the shaved back and the right ear for 6 consecutive days; whereas the control mice (normal group) were treated with a control cream. For treatment, 7-mer analogue was mixed with IMQ cream to a concentration 100 μM.
Keratinocyte proliferation was determined by 5-bromo-2′-deoxyuridine (BrdU) incorporation. BrdU (Sigma-Aldrich) was reconstituted in DMSO as a stock solution of 80 mM. 10 μl of BrdU mixed with 90 μl of PBS was intraperitoneally injected into each mouse for 24 hr prior to euthanasia. Back skin was fixed overnight in 4% paraformaldehyde and embedded in paraffin for immunohistochemistry.
In this example, the efficacy of the present synthetic peptides of Example 1 on IMQ-induced psoriasis-like skin inflammation was investigated. To this purpose, animals (8-week-old mice) were given a daily topical dose of IMQ cream on the shaved back for six consecutive days, so as to induce psoriasis-like skin inflammation and desquamation (FIG. 1; left panel).
Psoriasis is a disease resulted from abnormal keratinocyte proliferation, thus the effects of the present synthetic peptides on the proliferation of keratinocytes were also monitored in accordance with procedures described in the section of “Materials and Methods”. Results are illustrated in FIG. 2.

The next data set concerns LPS-induced arthritis. Description: Rat model of LPS-induced arthritis. It is filed as in vivo, Sprague-Dawley rats. To be noted: 7-mer 1 mM intraarticular along with LPS, 3 days, FIG. 4. The method, then:
In this study, acute arthritis was induced by direct injection of lipopolysaccharide (LPS) into rat joints in accordance with the procedures described by Pan R Y et al (J Virol. (1999) 73, 3410-3417). Briefly, adult (about 10 weeks old) male Sprague-Dawley rats (initial body wt=312±11 g) were anesthetized by an intraperitoneal injection of a Xylazine (10 mg/kg) and then randomly assigned to experimental groups; their right knees were later treated with a single intraarticular injection of 25 μl of 5% hyaluronic acid (HA) containing LPS (2 μg and 10 μg) or LPS+7-mer. 7-mer (10 mM stock) was dissolved in 25 μl of 5% HA to final concentration 1 mM. On day 2, the group LPS+7-mer or LPS+7-mer analogue was further treated with 7-mer by a single intraarticular is injection. On day 3, the knee joints were dissected and fixed in a 4% paraformaldehyde (PFA) solution and then decalcified with Shandon TBD-2 decalcifier (Thermo Scientific, Logan, Utah). The joints were then sectioned mid-sagittally and embedded in paraffin blocks. Sections (5 μm in thickness) were longitudinally cut, and stained with hematoxylin and eosin (H&E).
Rheumatoid arthritis (RA) is a chronic inflammatory disease characterized by an inflammation of the synovium leading to the destruction of joint cartilage and eventually the destruction of joint function. […]

The test system of data set [2] is OVA-induced allergic conjunctivitis. In words: Mouse model of OVA-induced allergic conjunctivitis. The class given is in vivo, BALB/c mice. To be noted: 7-mer 100 μM eye drop twice a day for 4 days, FIG. 5C. The method, then: BALB/c mice (4- to 5-weeks old females) were sensitized intraperitoneally with 1 μg of ovalbumin (OVA) and 200 μl of 1.5% aluminum hydroxide (ALUM) on days 0 and 7, respectively; and then challenged two times topically in the conjunctival sac with 250 μg of OVA respectively on days 15 and 18. Control mice were given OVA with ALUM in sensitization stages, and PBS in place of OVA in challenge stages. For treatment, 7-mer was mixed with 1% CMC eye drop to a concentration 100 μM. After the OVA challenge (day 15), the mice were randomly assigned to two experimental groups (n=6 per group) and the eye was treated with 20 μl of 7-mer or vehicle eye drop twice a day for 4 days (to day 18). Twenty-four hrs after the final challenge with OVA (day 19), mice were euthanized and their eyes were harvested, fixed overnight in 4% paraformaldehyde and embedded in paraffin. To evaluate the eosinophilic infiltration, sections (5 μm) including eyelids were de-paraffinized and stained with acid-giemsa for detection of eosinophils.
Allergic conjunctivitis (AC) is characterized by conjunctival eosinophilic infiltration. […]

In data set [3] the test system is OVA-induced allergic asthma. In words: Mouse model of OVA-induced allergic asthma. The class given is in vivo, BALB/c mice. To be noted: 7-mer 100 μM intranasal twice a day, vs OVA challenged mice, FIG. 6B. On the procedure: BALB/c mice (4- to 5-weeks old females) were sensitized intraperitoneally with 1 μg of ovalbumin (OVA) and 200 μl of 1.5% aluminum hydroxide on days 0 and 7, respectively; and then challenged three times by intranasal injection with 250 μg of OVA on days 21, 22 and 23. Control mice were given OVA with ALUM in sensitization stages, and PBS in place of OVA in challenge stages. For treatment, 7-mer analogue was mixed with 1% CMC eye drop to a concentration 100 μM. On day 20 and after the OVA challenge (day 21), the mice were randomly assigned to two experimental groups (n=6 per group) is and the nasal was injected with 20 μl of 7-mer or vehicle drop twice a day for 4 days (to day 23). Twenty-four hrs after the final challenge with OVA (day 24), mice were euthanized and their eyes were harvested, fixed overnight in 4% paraformaldehyde and embedded in paraffin.
In this example, we investigate the efficacy of the present synthetic peptide on allergic asthma by use of the well-characterized murine model of allergic airway disease, employing ovalbumin as the antigen. The experimental murine asthma model was established in accordance with the procedures described in the section of “Materials and Methods,” and as depicted in panel A of FIG. 6.

By viability is commonly meant a per cent measure of how many cells are alive, often set against a control. Read a high viability as less harm to the cells.

In the case of `CC(=O)N[C@@H](CC(=O)O)C(=O)N[C@@H](CC(C)C)C(=O)N[C@@H](Cc1ccc(O)cc1)C(=O)N[C@@H](CCCNC(=N)N)C(=O)N[C@H](C(=O)N[C@@H](CCCNC(=N)N)C(=O)N[C@@H](CO)C(N)=O)C(C)C` [7-mer, NH2-Asp-Leu-Tyr-Arg-Val-Arg-Ser-COOH], in “in vitro” (Rar264.7 cell viability), the viability at 24 h, 20 μM amounted to 55 ± 3.66%. The compound also yielded a viability at 24 h, 20 μM in “in vitro” (Raw264.7 cell viability) of 55.7 ± 4.24%. In data set [1] (7-mer topically or via intraperitoneal injection, FIG. 2), the “number of BrdU-positive keratinocytes” value is on record as “significantly reduced”. In addition, the “level of skin inflammation and desquamation” value in data set [1] (topical cream containing IMQ and 7-mer peptide 100 μM, six consecutive days, FIG. 1) is “reduced significantly”. For the same compound, the “inflammation in the knee (synoviocyte proliferation, leukocyte infiltration, H&E)” value with LPS-induced arthritis is on record as “significantly attenuated”. Besides, in data set [2], the “infiltration of eosinophils in the conjunctiva” value is recorded as “decreased significantly”. Moreover, in data set [3], the “inflammatory cell infiltration (peribronchial, perivascular; H&E)” value is reported as “significantly reduced” and the “mucus secretion (PAS staining)” value was “markedly reduced”.
